Data published in patent publication US8227613B2, “Heteroaryl carboxamide derivatives” (Hoffmann-La Roche Inc., priority 2008, dated 2012).

Molecular target: T1, human chemokine receptor 2 isoform B (CCR2B) (Homo sapiens, UniProt P41597)
T1 construct: host or cells: CHO-K1 (CHOK1-CCR2B-A5)
T1 sequence (P41597 1-360 isoform P41597-2): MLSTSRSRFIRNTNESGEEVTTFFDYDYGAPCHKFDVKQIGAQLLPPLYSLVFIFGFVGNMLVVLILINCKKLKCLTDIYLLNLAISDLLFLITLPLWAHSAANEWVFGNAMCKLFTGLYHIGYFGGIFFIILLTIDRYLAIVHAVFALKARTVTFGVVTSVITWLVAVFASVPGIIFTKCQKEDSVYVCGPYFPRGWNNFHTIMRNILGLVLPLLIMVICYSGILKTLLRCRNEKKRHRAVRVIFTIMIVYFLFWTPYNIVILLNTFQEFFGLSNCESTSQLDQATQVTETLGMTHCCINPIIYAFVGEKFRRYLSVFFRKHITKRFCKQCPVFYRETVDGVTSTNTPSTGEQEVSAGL
Experiment: Calcium mobilization assay (FLIPR, MCP-1 stimulated CHOK1-CCR2B-A5 cells)
Format: cell-based
Conditions: 20 nM MCP-1, antagonist activity, read-out: IC50 (inhibitor concentration required for 50% inhibition of specific calcium increases)
Method: Calcium Mobilization Assay
CHOK1-CCR2B-A5 cells (from Euroscreen) stably overexpressing the human chemokine receptor 2 isoform B were cultured in Nutrient Hams F12 medium supplemented with 5% FBS, 100 U/ml penicillin, 100 μg/ml streptomycin, 400 μg/ml G418 and 5 μg/ml puromycin.
For the assay cells were grown overnight in 384-well black clear flat bottom polystyrene plates (Costar) at 37° C. at 5% CO2. After washing with DMEM, 20 mM Hepes, 2.5 mM probenecid, 0.1% BSA (DMEM assay buffer) cells were loaded with 4 μM Fluo-4 in the same DMEM assay buffer for 2 hours at 30° C. Excess dye was removed and cells were washed with DMEM assay buffer. 384-well compound plates were prepared with DMEM assay buffer/0.5% DMSO with or without various concentrations of test compounds. Usually compounds were tested for agonist and antagonist activity.
Test compounds were added to the assay plate and agonist activity was monitored as fluorescence for 80 seconds with a FLIPR (488 nm excitation; 510-570 nm emission; Molecular Devices). After 20-30 min. of incubation at 30° C., 20 nM MCP-1 (R&D; Roche) was added and fluorescence was monitored again for 80 seconds. Increases in intracellular calcium are reported as maximum fluorescence after agonist exposure minus basal fluorescence before exposure. Antagonist activity is indicated as inhibitor concentration required for 50% inhibition of specific calcium increases.

SMILES	IC50 [nM]
Cc1cc(-c2cccc(C(F)(F)F)c2)c[n+]([O-])c1C(=O)N1CCC(N2CCCC2)CC1 [Example 2, [3-Methyl-1-oxy-5-(3-trifluoromethyl-phenyl)-pyridin-2-yl]-(4-pyrrolidin-1-yl-piperidin-1-yl)-methanone]	23
Cc1cc(-c2cccc(C(F)(F)F)c2)cnc1C(=O)N1CCC(N2CCC[C@H]2CO)CC1 [Example 5, [4-((S)-2-Hydroxymethyl-pyrrolidin-1-yl)-piperidin-1-yl]-[3-methyl-5-(3-trifluoromethyl-phenyl)-pyridin-2-yl]-methanone]	21
CC(=O)N(C(C)=O)c1nc(C(=O)N2CCC(N3CCCC3)CC2)c(C)cc1-c1cccc(C(F)(F)F)c1 [Example 10, N-Acetyl-N-[5-methyl-6-(4-pyrrolidin-1-yl-piperidine-1-carbonyl)-3-(3-trifluoromethyl-phenyl)-pyridin-2-yl]-acetamide]	78
Cc1cc(-c2cccc(C(F)(F)F)c2)n(C)c(=O)c1C(=O)N1CCC(N2CCCC2)CC1 [Example 13, 1,4-Dimethyl-3-(4-pyrrolidin-1-yl-piperidine-1-carbonyl)-6-(3-trifluoromethyl-phenyl)-1H-pyridin-2-one]	58
O=C(c1ncc(-c2cccc(C(F)(F)F)c2)cc1Cl)N1CCC(N2CCCC2)CC1 [Example 14, [3-Chloro-5-(3-trifluoromethyl-phenyl)-pyridin-2-yl]-(4-pyrrolidin-1-yl-piperidin-1-yl)-methanone]	12
O=C(c1ncc(-c2cccc(C(F)(F)F)c2)cc1-c1cccc(C(F)(F)F)c1)N1CCC(N2CCCC2)CC1 [Example 15, [3,5-Bis-(3-trifluoromethyl-phenyl)-pyridin-2-yl]-(4-pyrrolidin-1-yl-piperidin-1-yl)-methanone]	250
Cc1cc(-c2cccc(C(F)(F)F)c2)c(-c2cncnc2)nc1C(=O)N1CCC(N2CCCC2)CC1 [Example 17, [3-Methyl-6-pyrimidin-5-yl-5-(3-trifluoromethyl-phenyl)-pyridin-2-yl]-(4-pyrrolidin-1-yl-piperidin-1-yl)-methanone]	8.7
Cc1cc(-c2cccc(C(F)(F)F)c2)nc(N)c1C(=O)N1CCC(N2CCCC2)CC1 [Example 19, [2-Amino-4-methyl-6-(3-trifluoromethyl-phenyl)-pyridin-3-yl]-(4-pyrrolidin-1-yl-piperidin-1-yl)-methanone]	64
Cc1cc(-c2cccc(C(F)(F)F)c2)c(-n2cnc(Cl)n2)nc1C(=O)N1CCC(N2CCCC2)CC1 [Example 20, [6-(3-Chloro-[1,2,4]triazol-1-yl)-3-methyl-5-(3-trifluoromethyl-phenyl)-pyridin-2-yl]-(4-pyrrolidin-1-yl-piperidin-1-yl)-methanone]	4
COc1nc(C(=O)N2CCC(N3CCCC3)CC2)c(Cl)cc1-c1cccc(C(F)(F)F)c1 [Example 22, [3-Chloro-6-methoxy-5-(3-trifluoromethyl-phenyl)-pyridin-2-yl]-(4-pyrrolidin-1-yl-piperidin-1-yl)-methanone]	18
Cc1cc(-c2ccc(Cl)c(Cl)c2)cnc1C(=O)N1CCC(N2CCCC2)CC1 [Example 28, [5-(3,4-Dichloro-phenyl)-3-methyl-pyridin-2-yl]-(4-pyrrolidin-1-yl-piperidin-1-yl)-methanone]	250
Cc1cc(-c2cc(C(F)(F)F)ccc2Cl)cnc1C(=O)N1CCC(N2CCCC2)CC1 [Example 30, [5-(2-Chloro-5-trifluoromethyl-phenyl)-3-methyl-pyridin-2-yl]-(4-pyrrolidin-1-yl-piperidin-1-yl)-methanone]	54
Cc1cc(-c2cc(C(F)(F)F)ccc2F)cnc1C(=O)N1CCC(N2CCCC2)CC1 [Example 31, [5-(2-Fluoro-5-trifluoromethyl-phenyl)-3-methyl-pyridin-2-yl]-(4-pyrrolidin-1-yl-piperidin-1-yl)-methanone]	25

Further lines, results first:

IC50 [nM]	SMILES
18	Cc1cc(-c2cccc(C(F)(F)F)c2)cnc1C(=O)N1CCC(N2CCCC2)CC1 [Example 1, [3-Methyl-5-(3-trifluoromethyl-phenyl)-pyridin-2-yl]-(4-pyrrolidin-1-yl-piperidin-1-yl)-methanone]
4	Cc1cc(-c2cccc(C(F)(F)F)c2)c(Cl)nc1C(=O)N1CCC(N2CCCC2)CC1 [Example 3, [6-Chloro-3-methyl-5-(3-trifluoromethyl-phenyl)-pyridin-2-yl]-(4-pyrrolidin-1-yl-piperidin-1-yl)-methanone]
130	COc1ccc(CNc2nc(C(=O)N3CCC(N4CCCC4)CC3)c(C)cc2-c2cccc(C(F)(F)F)c2)cc1 [Example 6, [6-(4-Methoxy-benzylamino)-3-methyl-5-(3-trifluoromethyl-phenyl)-pyridin-2-yl]-(4-pyrrolidin-1-yl-piperidin-1-yl)-methanone]
16	Cc1cc(-c2cccc(C(F)(F)F)c2)c(N)nc1C(=O)N1CCC(N2CCCC2)CC1 [Example 7, [6-Amino-3-methyl-5-(3-trifluoromethyl-phenyl)-pyridin-2-yl]-(4-pyrrolidin-1-yl-piperidin-1-yl)-methanone]
65	COc1nc(C(=O)N2CCC(N3CCCC3)CC2)c(C)cc1-c1cccc(C(F)(F)F)c1 [Example 8, [6-Methoxy-3-methyl-5-(3-trifluoromethyl-phenyl)-pyridin-2-yl]-(4-pyrrolidin-1-yl-piperidin-1-yl)-methanone]
6.4	Cc1cc(-c2cccc(C(F)(F)F)c2)c(O)nc1C(=O)N1CCC(N2CCCC2)CC1 [Example 9, [6-Hydroxy-3-methyl-5-(3-trifluoromethyl-phenyl)-pyridin-2-yl]-(4-pyrrolidin-1-yl-piperidin-1-yl)-methanone; 5-Methyl-6-(4-pyrrolidin-1-yl-piperidine-1-carbonyl)-3-(3-trifluoromethyl-phenyl)-1H-pyridin-2-one (tautomers)]
71	CC(=O)Nc1nc(C(=O)N2CCC(N3CCCC3)CC2)c(C)cc1-c1cccc(C(F)(F)F)c1 [Example 11, N-[5-Methyl-6-(4-pyrrolidin-1-yl-piperidine-1-carbonyl)-3-(3-trifluoromethyl-phenyl)-pyridin-2-yl]-acetamide]
4.2	Cc1cc(-c2cccc(C(F)(F)F)c2)c(-c2cccnc2)nc1C(=O)N1CCC(N2CCCC2)CC1 [Example 16, [5-Methyl-3-(3-trifluoromethyl-phenyl)-[2,3′]bipyridinyl-6-yl]-(4-pyrrolidin-1-yl-piperidin-1-yl)-methanone]
3.2	O=C(c1nc(Cl)c(-c2cccc(C(F)(F)F)c2)cc1Cl)N1CCC(N2CCCC2)CC1 [Example 21, [3,6-Dichloro-5-(3-trifluoromethyl-phenyl)-pyridin-2-yl]-(4-pyrrolidin-1-yl-piperidin-1-yl)-methanone]
41	O=C(c1nc(O)c(-c2cccc(C(F)(F)F)c2)cc1Cl)N1CCC(N2CCCC2)CC1 [Example 23, [3-Chloro-6-hydroxy-5-(3-trifluoromethyl-phenyl)-pyridin-2-yl]-(4-pyrrolidin-1-yl-piperidin-1-yl)-methanone; 5-Chloro-6-(4-pyrrolidin-1-yl-piperidine-1-carbonyl)-3-(3-trifluoromethyl-phenyl)-1H-pyridin-2-one (tautomers)]
4.8	C#Cc1nc(C(=O)N2CCC(N3CCCC3)CC2)c(C)cc1-c1cccc(C(F)(F)F)c1 [Example 24, [6-Ethynyl-3-methyl-5-(3-trifluoromethyl-phenyl)-pyridin-2-yl]-(4-pyrrolidin-1-yl-piperidin-1-yl)-methanone]
2.3	Cc1cc(-c2cccc(C(F)(F)F)c2)c(-n2cncn2)nc1C(=O)N1CCC(N2CCCC2)CC1 [Example 25, [3-Methyl-6-[1,2,4]triazol-1-yl-5-(3-trifluoromethyl-phenyl)-pyridin-2-yl]-(4-pyrrolidin-1-yl-piperidin-1-yl)-methanone]
67	Cc1cc(-c2cccc(C(F)(F)F)c2)c(NCCN)nc1C(=O)N1CCC(N2CCCC2)CC1 [Example 26, [6-(2-Amino-ethylamino)-3-methyl-5-(3-trifluoromethyl-phenyl)-pyridin-2-yl]-(4-pyrrolidin-1-yl-piperidin-1-yl)-methanone]
41	Cc1cc(-c2cccc(C(F)(F)F)c2)c(NCCO)nc1C(=O)N1CCC(N2CCCC2)CC1 [Example 27, [6-(2-Hydroxy-ethylamino)-3-methyl-5-(3-trifluoromethyl-phenyl)-pyridin-2-yl]-(4-pyrrolidin-1-yl-piperidin-1-yl)-methanone]
23	Cc1cc(-c2cccc(C(F)(F)F)c2)c(-c2cnn[nH]2)nc1C(=O)N1CCC(N2CCCC2)CC1 [Example 32, [3-Methyl-6-(1H-[1,2,3]triazol-4-yl)-5-(3-trifluoromethyl-phenyl)-pyridin-2-yl]-(4-pyrrolidin-1-yl-piperidin-1-yl)-methanone]
